# Patent publication US9238631B2, “Radiolabeled amino acids for diagnostic imaging” (PIRAMAL IMAGING SA, priority 2011, dated 2016)
# Tests used:
# NCI-H460 tumor [1] = assay: In vivo biodistribution in NCI-H460 tumor bearing mice; settings: for T/Blood / T/Muscle: 1 h post injection
# Procedure: (§1) To test the pharmacokinetic properties of compounds from the present invention, all F18-labeled compounds were examined by biodistribution studies in NCI-H460 tumor bearing mice. Female NMRI (nu/nu) mice were inoculated with 5×10^6 NCI-H460 tumor cells 8 to 10 days before the biodistribution studies. 185 kBq of activity of the fluorinated compound was injected and at least n=3 mice were used for every time point. After injection of the F18-labeled compound, mice were sacrificed at defined time-points. All organs were removed and radioactivity was determined using a γ-counter.
# To compare the tumor uptake and retention of radioactivity of different ^18F-labeled derivatives from the present invention, biodistribution studies were performed in NCI-H460 tumor bearing NMRI (nu/nu) mice as described above.
# To compare the kidney clearance of several ^18F-labeled derivatives from the present invention, biodistribution studies were performed in NCI-H460 tumor bearing female NMRI (nu/nu) mice as described above. […] After 2 h p.i., less than 1% ID/g can be found in the kidneys.
# For comparison of pancreas uptake and clearance of several ^18F-labeled derivatives from the present invention, biodistribution studies were performed in NCI-H460 tumor bearing NMRI (nu/nu) mice as described above. […] After 2 h p.i., less than 2% ID/g can be found in the pancreas.
# as §1, with “and” for “for every time point. After injection of the F18-labeled compound, mice were”, “time-points raning from 15 min pi up to 2 h p.i.” for “time-points.”, “γ-counter. […] High tumor uptake values of >3% ID/g were obtained with various compounds from the present invention.” for “γ-counter.”
# NCI-H460 tumor [2] = assay: PET imaging in NCI-H460 tumor bearing nude-rats; type: in vivo; settings: PET ROI analysis, 1 h p.i.
# Procedure: c) Beside PET-imaging studies in mice, also the imaging properties of [^18F]-12 in rats were examined. NCI-H460 tumor cells were inoculated into the right flank of nude-rats (RH-Foxn1 nu/nu) 8 to 10 days before the PET study. PET images were acquired at 60 min after injection of approximately 10 MBq for 10 minutes. The H460 tumor was nicely visible (0.9% ID/g as determined by ROI analysis). Beside some minor uptake into the liver and kidneys due to the excretion of the compound, no uptake into other non-target tissues was observed.
# To test the imaging properties, compounds from the present invention were evaluated in PET imaging studies using tumor bearing rats. NCI-H460 tumor cells were inoculated into the right flank of nude-rats (RH-Foxn1 nu/nu) 8 to 10 days before the PET study. PET images were acquired at 60 min after injection of approximately 10 MBq for 10 minutes. After the imaging study, region-of-interest (ROI) analysis was performed and activity in tumor, liver and kidney was determined. […] High tumor uptake values of >1% […] in this rat model were obtained with various compounds from the present invention. A favorable clearance profile of all compounds enables excellent tumor detection in PET imaging studies in tumor bearing rats.
Kidney (% ID/g at 1 h p.i.) (NCI-H460 tumor [1]),Liver (% ID/g at 1 h p.i.) (NCI-H460 tumor [1]),Pancreas (% ID/g at 1 h p.i.) (NCI-H460 tumor [1]),Tumor (% ID/g at 1 h p.i.) (NCI-H460 tumor [1]),Urine (% ID at 1 h p.i.) (NCI-H460 tumor [1]),T/Blood (NCI-H460 tumor [1]),T/Muscle (NCI-H460 tumor [1]),Kidney (% ID/g at 1 h p.i.) (NCI-H460 tumor [2]),Liver (% ID/g at 1 h p.i.) (NCI-H460 tumor [2]),Tumor (Max % ID/g at 1 h p.i.) (NCI-H460 tumor [2]),Tumor (Mean % ID/g at 1 h p.i.) (NCI-H460 tumor [2]),"tumor uptake and retention (summary statement) (NCI-H460 tumor [1]; mouse, in vivo)",Structure (SMILES)
3.5 ± 0.7 % ID/g,0.3 ± 0.1 % ID/g,2.2 ± 0.3 % ID/g,6.4 ± 1.4 % ID/g,85.0 ± 7.7 % ID,23.4,94.2,0.5 % ID/g,0.4 % ID/g,3.2 % ID/g,1.2 % ID/g,–,"N[C@@H](CCC(Cc1ccc(OC[18F])cc1)C(=O)O)C(=O)O (single isomer, unassigned) [[^18F]-41 C5-1]"
2.4 ± 0.8 % ID/g,0.3 ± 0.1 % ID/g,1.1 ± 0.2 % ID/g,8.7 ± 1.9 % ID/g,83.5 ± 5.1 % ID,36.0,107.3,0.2 % ID/g,0.2 % ID/g,4.4 % ID/g,2.0 % ID/g,–,"N[C@@H](CCC(Cc1ccc(OC[18F])cc1)C(=O)O)C(=O)O (single isomer, unassigned) [[^18F]-41 C5-2]"
–,–,–,–,–,–,–,0.8 % ID/g,1.2 % ID/g,3.4 % ID/g,1.3 % ID/g,–,N[C@@H](CCC(Cc1ccc(OCC[18F])cc1)C(=O)O)C(=O)O (stereo partly drawn) [[^18F]-12 C5-1] [(2S)-2-amino-5-[4-([^18F]fluoroethoxy)benzyl]hexanedioic acid]
–,–,–,–,–,–,–,0.4 % ID/g,0.5 % ID/g,3.7 % ID/g,1.6 % ID/g,–,N[C@@H](CCC(Cc1ccc(OCC[18F])cc1)C(=O)O)C(=O)O (stereo partly drawn) [[^18F]-12 C5-2] [(2S)-2-amino-5-[4-(fluoroethoxy)benzyl]hexanedioic acid]
–,–,–,–,–,–,–,2.4 % ID/g,0.9 % ID/g,2.6 % ID/g,1.2 % ID/g,–,N[C@@H](CC(Cc1ccc(OCC[18F])cn1)C(=O)O)C(=O)O (some centres unmarked) [[^18F]-17]
3.9 ± 1.0 % ID/g,2.3 ± 0.2 % ID/g,0.7 ± 0.1 % ID/g,2.3 ± 0.9 % ID/g,81.0 ± 7.5 % ID,17.9,23.5,–,–,–,–,–,"N[C@@H](CCC(Cc1ccc(OCC[18F])cn1)C(=O)O)C(=O)O (stereo partly drawn) [[^18F]-32, (2S)-2-Amino-5-{[5-(2-[^18F]fluoroethoxy)pyridin-2-yl]methyl}hexanedioic acid]"
–,–,–,–,–,–,–,3.1 % ID/g,0.2 % ID/g,0.5 % ID/g,0.2 % ID/g,–,"N[C@@H](CC(Cc1ccc(OCC[18F])c[n+]1[O-])C(=O)O)C(=O)O (stereo partly drawn) [[^18F]-35, 4-{[5-(2-[^18F]fluoroethoxy)-1-oxidopyridin-2-yl]methyl}-L-glutamic acid]"
2.5 ± 0.7 % ID/g,0.95 ± 0.1 % ID/g,1.2 ± 0.1 % ID/g,3.3 ± 1.2 % ID/g,80.6 ± 10.1 % ID,28.2,71.1,–,–,–,–,–,"N[C@@H](CC(Cc1ccc(OCC[18F])c(O)c1)C(=O)O)C(=O)O (stereo partly drawn) [[^18F]-44, 4-[4-(2-[^18F]fluoroethoxy)-3-hydroxybenzyl]-L-glutamic acid]"
–,–,–,–,–,–,–,1.0 % ID/g,0.2 % ID/g,2.4 % ID/g,1.1 % ID/g,–,"N[C@@H](C[C@@H](Cc1ccc(OC[18F])cc1)C(=O)O)C(=O)O [[^18F]-50, (4R)-4-{4-[(^18F)fluoromethoxy]benzyl}-L-glutamic acid]"
3.5 ± 1.1 % ID/g,2.6 ± 0.4 % ID/g,7.5 ± 1.1 % ID/g,8.2 ± 2.1 % ID/g,66.8 ± 10.3 % ID,32.5,95.4,–,–,–,–,high tumor uptake and retention,"N[C@@H](CCC(Cc1ccc(NCC[18F])cc1)C(=O)O)C(=O)O (stereo partly drawn) [[^18F]-52, (2S)-2-amino-5-(4-{[2-(^18F)fluoroethyl]amino}benzyl)hexanedioic acid]"
5.2 ± 1.1 % ID/g,0.7 ± 0.2 % ID/g,0.2 ± 0.03 % ID/g,1.0 ± 0.1 % ID/g,77 ± 6.7 % ID,9.9,25,–,–,–,–,–,"N[C@@H](CC(Cc1ccc(OCC[18F])nc1)C(=O)O)C(=O)O (stereo partly drawn) [[^18F]-56, 4-({6-[2-(^18F)fluoroethoxy]pyridin-3-yl}methyl)-L-glutamic acid]"
–,–,–,–,–,–,–,4.6 % ID/g,1.7 % ID/g,0.63 % ID/g,0.3 % ID/g,–,"N[C@@H](CC(Cc1ccc(OC[C@H](O)[C@@H](O)C[18F])cc1)C(=O)O)C(=O)O (stereo partly drawn) [[^18F]-58, 4-(4-{[(2S,3R)-4-(^18F)fluoro-2,3-dihydroxybutyl]oxy}benzyl)-L-glutamic acid]"
–,–,–,–,–,–,–,2.2 % ID/g,0.9 % ID/g,2.2 % ID/g,1.0 % ID/g,–,"N[C@@H](CC(Cc1ccc(OC(CO)C[18F])cc1)C(=O)O)C(=O)O (stereo partly drawn) [[^18F]-60, 4-(4-{[1-(^18F)fluoro-3-hydroxypropan-2-yl]oxy}benzyl)-L-glutamic acid]"
–,–,–,–,–,–,–,2.9 % ID/g,1.7 % ID/g,1.3 % ID/g,0.7 % ID/g,–,"N[C@@H](CC(Cc1ccc(C[18F])cc1)C(=O)O)C(=O)O (stereo partly drawn) [[^18F]-66, 4-{4-[(^18F)fluoromethyl]benzyl}-L-glutamic acid]"
